Measured values: patent EP0723577B1, “DETERGENT COMPOSITIONS CONTAINING SILVER ANTI-TARNISHING AGENTS” (UNILEVER N.V., priority 1993, dated 1995)

Key:
[1] = Tarnish-monitoring experiments in a dishwasher with varied bleaching agent and mainwash pH, visual evaluation against the Example 1 reference scale; details: for reduction of tarnishing: pH 7.5 (peracetic acid 4.12%); for reduction in tarnishing: pH 10.5 (sodium hypochlorite 8.23%)
Description: (§1) Tarnishing-monitoring experiments were conducted, using samples A, B, C, D, E, and F at a product dosage of 40 grams per run in a Bauknecht GSF 3162 dishwasher, with an intake of 5 litres water. The mainwash pH values for compositions A and B were adjusted to 7.5; the mainwash pH values for compositions C and D were adjusted to 8.5. Two experiments (each) were conducted, using compositions E and F; the mainwash pH values were adjusted to 9.0 and 10.5, respectively. Silver-plated spoons, knives, and forks (supplied by Oneida Silversmiths, USA), were used as monitors for all experiments. The monitors were washed in a commercially available hand dishwashing liquid and rinsed with deionized water and acetone before use. At the end of the dishwashing machine program, the monitors were visually evaluated for the presence of colours and/or loss of shine, according to the reference scale described in Example 1.
as §1, with “Tarnish monitoring” for “Tarnishing-monitoring”, “conducted” for “conducted,”, “compositions” for “samples”, “D E” for “D, E,”, “available” for “available hand”
Tarnish monitoring experiments were conducted using compositions A, B, C, D, E and F at a product dosage of 40 grams per run in a Bauknecht GSF 3162 dishwasher, with an intake of 5 litres water. The mainwash pH values for compositions A and B were adjusted to 7.5; the mainwash pH values for compositions C and D were adjusted to 8.5. Two experiments (each) were conducted using compositions E and F; the mainwash pH values were adjusted to 9.0 and 10.5. respectively. Silver-plated spoons, knives and forks (supplied by Oneida Silversmiths, USA), were used as monitors for all experiments. The monitors were washed in a commercially available dishwashing liquid and rinsed with deionized water and acetone before use. At the end of the dishwashing machine program, the monitors were visually evaluated for the presence of colours and/or loss of shine, according to the reference scale described in Example 1.

[2] = Silver plates held in the compositions for 25 minutes, evaluated for tarnishing; details: 4 wt.% epsilon-phthalimido peroxyhexanoic acid
Description: A comparison of anti-tarnishing performance of purine class compounds within the scope of the invention and azole compounds outside the invention was conducted. The selected compounds were incorporated in an amount of 1 wt.% in a machine dishwashing composition containing 4 wt.% epsilon-phthalimido peroxyhexanoic acid as the bleaching agent. The pH values of the compositions were adjusted by the addition of a 50% solution of sodium hydroxide or concentrated sulfuric acid, as necessary.
(§2) Copper plates and silver plates were held in each of the compositions for 25 minutes, removed, rinsed with deionized water and evaluated for tarnishing. […]
A comparison of anti-tarnishing performance of 1,3-N azole compounds within the scope of the invention and azole compounds outside the invention was conducted. The selected compounds were incorporated in an amount of 1 wt.% in a machine dishwashing composition containing 4 wt.% epsilon-phthalimido peroxyhexanoic acid as the bleaching agent. The pH values of the compositions were adjusted by the addition of a 50% solution of sodium hydroxide or concentrated sulfuric acid, as necessary.
as §2

physchem = format: physicochemical
Description: As used herein, the term "pKa" means a pH value at which 50% of the heterocyclic ring moieties of the compound (particularly the five-membered rings in the case of the purine class compounds) are in ionic form.
The pH of this solution was adjusted to 3.0 with H2SO4. The solution was then titrated with 1N NaOH to pH 11.0. A plot of mls. NaOH vs. pH for each sample was prepared. The pKa of the compound is that point where the maximum change in pH as a function of mls. NaOH is observed.

[3] = Tarnish-monitoring experiments in a dishwasher, monitors visually ranked 0 to 6 against the Example 1 reference scale
Description: The wash program consisted of a pre-wash at 40°C, a mainwash at 55°C, two intermediate rinses, and a final rinse at 65°C.
The mainwash pH with these compositions was typically 8.7. Silver-plated spoons (2 per run) were the monitors used in the test. The spoons were supplied by Oneida Silversmiths, USA. The monitors were washed in a commercially available hand dishwash liquid and rinsed with deionized water and acetone before use. In the dishwasher the monitors were kept apart from each other in the cutlery basket. At the end of a single-run machine program, the monitors were visually analyzed for the presence of colours and the loss of gloss.
This ranking of spoons was used as a reference scale for all subsequent Examples.

[4] = Example 11: 1,2,4-triazole 1.0%

c1nc[nH]n1 [1,2,4-triazole]
reduction of tarnishing [1, 4]: 1.5 units of tarnishing
reduction in tarnishing [1, 4]: 3.0 units
level of tarnishing relative to the case where no anti-tarnishing agent was present ([1]; Example 11: 1,2,4-triazole 1.0%, peracetic acid, epsilon-phthalimidoperoxyhexanoic acid or sodium hypochlorite, pH 7.5 to 10.5): reduced the level of tarnishing
Effective Silver Anti-Tarnishing ([2]; Example 13: 1 wt.% compound, pH of composition 8.8): Yes (A tarnish score of 3 or less was considered effective as a silver anti-tarnishing compound)
pKa of compounds (physchem; deionized water): 5.4
level at which optimum performance was achieved ([3]; Example 12): 1 % by weight
silver tarnishing, in words ([3]; Example 12, at amounts of 0.05 % by weight): effectively reduced silver tarnishing

c1ncc2[nH]cnc2n1 [Purine]
level of tarnishing relative to the samples which did not contain purine ([1]; Example 4: purine 1.0%, peracetic acid pH 7.5, epsilon-phthalimidoperoxy hexanoic acid pH 8.5, sodium hypochlorite pH 9.0 and 10.5): greatest at pH values of 7.5, 8.5 and 9.0
Effective Silver Anti-Tarnishing ([2]; Example 5: 1 wt.% compound, pH of composition 8.6): Yes (A tarnish score of 3 or less was considered effective as a silver anti-tarnishing compound)
pKa (physchem): 5.5

O=c1[nH]c(=O)[nH]c(=O)[nH]1 [cyanuric acid, 1,3,5-triazine-2,4,6(1H,3H,5H)-trione]
reduction of tarnishing ([1]; Example 8: cyanuric acid 1.0%): 1.5 units of tarnishing
reduction in tarnishing ([1]; Example 8: cyanuric acid 1.0%): 3.0 units
level of tarnishing relative to the case where no anti-tarnish agent was present ([1]; Example 8: cyanuric acid 1.0%, peracetic acid, epsilon-phthalimidoperoxyhexanoic acid or sodium hypochlorite, pH 7.5 to 10.5): reduced the level of tarnishing
level which gives optimum anti-tarnish performance ([3]; Example 9): about 1%
appearance of the monitors ([3]; Example 9, cyanuric acid at a 2.5% level): slightly yellow appearance
